According to patent US20250121076A1, “POLYPEPTIDE DRUG CONJUGATE HAVING NOVEL STRUCTURE AND APPLICATION THEREOF” (MEDSHINE DISCOVERY INC., priority 2021, published 2025):
pKd: −log10 of the molar value. Where a name gives a salt, the structure may show the parent alone. Starred links: 1 amine or outer side, 2 acyl side, 3 side chain; linkers in the order of their positions; H or OH if unused. Positions of bridges follow the written chain, without caps; N, C: chain ends. Non-standard residues stand in square brackets, D forms with d. Residues, ends and D or L forms follow the SMILES beside them. Chains are numbered I, II in the order given. *: point of attachment. TATA = O=C(CC[*:1])N1CN(C(=O)CC[*:2])CN(C(=O)CC[*:3])C1; Dolaproine = CO[C@@H]([C@@H]1CCCN1)[C@@H](C)C(=O)O; Dil = CC[C@H](C)[C@H](NC)[C@@H](CC(=O)O)OC; X2 = O=C(CCCC(=O)[*:2])NCCC(=O)[*:1]; PABC = O=C(OCc1ccc(N[*:1])cc1)[*:2]; X1 = C[C@@H](N*)[C@@H](O)c1ccccc1; Hyp = O=C(O)[C@@H]1C[C@@H](O)CN1; hArg = N=C(N)NCCCC[C@H](N)C(=O)O; Cit = NC(=O)NCCC[C@H](N)C(=O)O; Pen = CC(C)(S)[C@H](N)C(=O)O; NMeV = CN[C@H](C(=O)O)C(C)C; hCys = N[C@@H](CCS)C(=O)O; Sar = CNCC(=O)O

Biological target: T1, Human EphA2 (Homo sapiens, UniProt P29317)
T1 construct: purchased Sino Biological 13926-H08HD
T1 sequence (P29317 24-534 limits assumed): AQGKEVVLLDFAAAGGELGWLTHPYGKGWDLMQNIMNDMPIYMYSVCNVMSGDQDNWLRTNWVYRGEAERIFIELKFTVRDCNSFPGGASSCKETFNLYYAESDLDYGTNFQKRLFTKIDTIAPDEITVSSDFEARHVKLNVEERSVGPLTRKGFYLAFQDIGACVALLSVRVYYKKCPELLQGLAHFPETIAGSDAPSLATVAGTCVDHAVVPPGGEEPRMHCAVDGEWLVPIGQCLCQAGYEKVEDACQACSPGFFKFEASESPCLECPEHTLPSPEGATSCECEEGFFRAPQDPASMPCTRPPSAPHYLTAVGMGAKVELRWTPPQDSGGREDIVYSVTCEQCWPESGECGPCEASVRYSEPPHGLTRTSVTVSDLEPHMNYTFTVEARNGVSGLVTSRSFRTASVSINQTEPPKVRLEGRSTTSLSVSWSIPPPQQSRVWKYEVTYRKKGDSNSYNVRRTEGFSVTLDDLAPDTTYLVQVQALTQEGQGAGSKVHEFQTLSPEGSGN
Test: Binding capacity test to EphA2 protein (SPR, Biacore 8K)
Method: To detect the affinity of the compound to be tested to the target protein EphA2 using the SPR method.
• Biacore 8K (GE Healthcare). • 96-well Plate (Cat #650101, greiner bio-one) • CM5 chip (Cat #BR-1005-30, GE Healthcare) • Amine Coupling Kit (Cat #BR-1000-50, GE Healthcare) EDC NHS 1 M ethanolamine. • 10 mM sodium acetate pH 4.5 (Cat #BR-1003-50, GE Healthcare) • DMSO (Cat #D4540, Sigma) • P20 (Cat #BR-1000-54, GE Healthcare). • PBS (Cat #BR-1006-72, GE Healthcare). • EphA2 (Cat #13926-H08HD, Sino Biological)
In this experiment, the amino coupling method was used. The target protein EphA2 was directly immobilized on the CM5 chip using Biacore 8K. The compound to be tested as an analyte was then diluted to a required concentration gradient with a buffer (10 mM PBS, pH 7.4, 137 mM NaCl, 2.7 mM KCl, 5% DMSO, and 0.05% P20) for multi-cycle kinetic detection, in which each cycle is formed by 180 seconds of sample injection and 180 seconds of dissociation, and then the next cycle was performed, to obtain kinetic analysis data on the affinity of the target protein EphA2 to the compound to be tested. The final data were subjected to Kinetics fitting analysis based on a 1:1 model using Biacore Insight Evaluation Software (V 2.0.15.12933).
1) Preparation of the buffer: 10 mM PBS, pH 7.4, 137 mM NaCl, 2.7 mM KCl, 5% DMSO, and 0.05% P20.
2) Activation of the CM5 chip: The CM5 chip was activated with 400 mM EDC and 100 mM NHS at a flow rate of 10 μL/min for 420 seconds.
3) Coupling of the target protein: The target protein was diluted to 10 μg/mL with 10 mM sodium acetate (pH 4.5) and coupled at a flow rate of 10 μL/min for 284 s. The 1 #, 2 #, and 3 #channels on the chip were used in the experiment, and the coupling results were 1639.9RU, 1747.8RU, and 1702.2RU, respectively.
4) Blocking of the CM5 chip: The CM5 chip was blocked with 1 M ethanolamine at a flow rate of 10 μL/min for 420 seconds.
5) Analyte concentration: The compound to be tested was diluted with the buffer. The compound to be tested was diluted from 100 nM to 0.78 nM in a 2-fold gradient.
6) Sample injection analysis: Each concentration of the working solution of the compound to be tested corresponded to one cycle, with a flow rate of 30 μL/min for binding for 180 seconds and dissociating for 180 seconds. The last cycle was a 5% DMSO solvent correction cycle. 7) All results were subjected to kinetics fitting analysis based on a 1:1 model.
The experimental data of five effective concentrations of the compounds of the present invention were selected for Kinetics fitting analysis based on a 1:1 model using Biacore Insight Evaluation Software (V 2.0.15.12933).

For `CC[C@H](C)[C@@H]([C@@H](CC(=O)N1CCC[C@H]1[C@H](OC)[C@@H](C)C(=O)N[C@H](C)[C@@H](O)c1ccccc1)OC)N(C)C(=O)[C@@H](NC(=O)[C@H](C(C)C)N(C)C(=O)OCc1ccc(NC(=O)[C@H](CCCNC(N)=O)NC(=O)[C@@H](NC(=O)CCCC(=O)NCCC(=O)N(C)CC(=O)N(C)CC(=O)N(C)CC(=O)N(C)CC(=O)N(C)CC(=O)N(C)CC(=O)N(C)CC(=O)N(C)CC(=O)N(C)CC(=O)N(C)CC(=O)N[C@H]2CCCCNC(=O)C[C@@H](C(=O)N[C@H]3CCSCCC(=O)N4CN5CN(C4)C(=O)CCSC[C@H](NC(=O)[C@H](CC(C)C)NC(=O)[C@@H]4CCCN4C(=O)[C@H](CC(N)=O)NC(=O)[C@H](C(C)C)NC(=O)[C@H](CC(C)C)NC(=O)[C@@H]4C[C@@H](O)CN4C3=O)C(=O)N[C@@H](CC(C)C)C(=O)N[C@@H](Cc3c[nH]cn3)C(=O)N3CCC[C@H]3C(=O)N[C@H](CC(=O)O)C(=O)N[C@@H](Cc3c[nH]c4ccccc34)C(=O)N[C@@H](CCCCNC(=N)N)C(=O)N[C@H](C(N)=O)CSCCC5=O)NC(=O)[C@H](CCCCNC(=N)N)NC2=O)C(C)C)cc1)C(C)C` [Acetate salt of PDC_6] (I: [Sar][Sar][Sar][Sar][Sar][Sar][Sar][Sar][Sar][Sar]K[hArg]D[hCys][Hyp]LVNPLCLHP[dD]W[hArg]C-NH2 / II: V[Cit][PABC][NMeV]V[Dil][Dolaproine]-X1; lactam I:11-I:13; linker I:14-I:21-I:28 via TATA; linker I:N-II:N via X2), the pKd was 8.25.
In the case of `CC[C@H](C)[C@@H]([C@@H](CC(=O)N1CCC[C@H]1[C@H](OC)[C@@H](C)C(=O)N[C@H](C)[C@@H](O)c1ccccc1)OC)N(C)C(=O)[C@@H](NC(=O)[C@H](C(C)C)N(C)C(=O)OCc1ccc(NC(=O)[C@H](CCCNC(N)=O)NC(=O)[C@@H](NC(=O)CCCC(=O)NCCC(=O)N(C)CC(=O)N(C)CC(=O)N(C)CC(=O)N(C)CC(=O)N(C)CC(=O)N(C)CC(=O)N(C)CC(=O)N(C)CC(=O)N(C)CC(=O)N(C)CC(=O)N[C@H]2CCCCNC(=O)C[C@@H](C(=O)N[C@@H]3C(=O)N4C[C@H](O)C[C@H]4C(=O)N[C@@H](CC(C)C)C(=O)N[C@@H](C(C)C)C(=O)N[C@@H](CC(N)=O)C(=O)N4CCC[C@H]4C(=O)N[C@@H](CC(C)C)C(=O)N[C@H]4CSCCC(=O)N5CN(CN(C5)C(=O)CCSC3(C)C)C(=O)CCSC[C@@H](C(N)=O)NC(=O)[C@H](CCCCNC(=N)N)NC(=O)[C@H](Cc3c[nH]c5ccccc35)NC(=O)[C@@H](CC(=O)O)NC(=O)[C@@H]3CCCN3C(=O)[C@H](Cc3c[nH]cn3)NC(=O)[C@H](CC(C)C)NC4=O)NC(=O)[C@H](CCCCNC(=N)N)NC2=O)C(C)C)cc1)C(C)C` [Acetate salt of PDC_7] (I: [Sar][Sar][Sar][Sar][Sar][Sar][Sar][Sar][Sar][Sar]K[hArg]D[Pen][Hyp]LVNPLCLHP[dD]W[hArg]C-NH2 / II: V[Cit][PABC][NMeV]V[Dil][Dolaproine]-X1; lactam I:11-I:13; linker I:14-I:21-I:28 via TATA; linker I:N-II:N via X2), the pKd was 8.08.
